Measured values from article PMC5537305, “Photo-enhanced Aqueous Solubilization of an Azo-compound” (Scientific Reports, 2017).
In brackets after ≈: the same amount, converted by molar mass.

How the values were obtained:
Type in all cases: physicochemical
[1] = LogPow by HPLC method (OECD 117); conditions: reversed-phase HPLC column (Inertsil ODS-4)
Protocol: Inc. Inertsil ODS-4 reversed-phase column, 5 µm, 4.6 mm x 150 mm) eluted with a mobile phase consisting of H2O and CH3CN (45: 55) at a flow rate of 1.0 mL/min, with UV monitoring at 300 (for 1) or 330 (for 2) nm, at 37 ° C. The dead time t0 was measured with thiourea as the unretained compound. Each measurement was performed in duplicate, and the mean retention time (tR) was used for further calculations. The capacity factor of each compound, k = ((tR – t0) / t0), was calculated by extrapolation of the line fitted on the measured log k values of CH3CN−aqueous mobile phase. For the reference substrates (acetanilide, methyl benzoate, toluene, 4-phenylphenol, benzyl benzoate, dibenzyl), the calculated log k values were plotted against logPow values, and the absolute calibration curve was determined (LogP = 2.8279 x (log k) + 1.6035, R2=0.98). The LogP values of tested compounds were calculated using a previously prepared calibration curve from the tR […]
We observed the azobenzene compound using an optical microscope (BX-51P, Olympus). Bright-field images were captured in the reflection mode. For investigation of the existence of the polarization plane in the sample, the transmitted polarizing microscope mode under crossed-Nicol conditions was used. […] The intensity of illuminating UV light at the sample was monitored with an optical power meter […]

[2] = Aqueous solubility of stilbenes 1 and 2 in phosphate buffer; conditions: for solubility at 24 h: 20 °C, aqueous buffer, thermodynamic from solid, 20 °C for 24 h
Excerpt: First, we synthesized cis- and trans-stilbene analogs 1 and 2 as models for cis- and trans-azobenzenes, respectively (Fig. 1, Fig. S1). As expected, cis-1 was 14 times more soluble than trans-2 in phosphate buffer (Table S1). To confirm the putative mechanism of the higher solubility of the cis isomer, the melting point and LogP ow were examined as parameters of intermolecular interaction and hydrophobicity, respectively. The order of lower melting points (cis < trans) was the same as the order of higher aqueous solubility (cis > trans). As for hydrophobicity, the LogP ow values of 1 and 2 were almost the same. […] Therefore, the bent and twisted structure of cis-azobenzenes may result in greater aqueous solubility.
Table S1. Physicochemical properties of stilbenes 1 and 2.
Compound (µg/mL) Melting point (º C) LogPow λmax (nm)
Table S2. Photoinduced isomerization of 3
Light Time (min) cis ratio (%) trans ratio (%)
Compound 3 (10 µM) in a mixture of water and MeOH (1%) was successively exposed to white light and to a 365 nm mercury lamp (0.5 mW/cm2). The cis-trans ratio was calculated from the peak areas in HPLC.
(§1) Table S3. Cis ratio and aqueous solubilization of 3 under UV irradiation, under visible light irradiation, and in […]
Shake UV light Visible light Dark time cis ratio Solubilized 3 cis ratio Solubilized 3 cis ratio Solubility (%) (µg/mL) (%) (µg/mL) (%) (µg/mL)
(§2) Compound 3 was shaken at 37 °C under UV irradiation, under visible light irradiation, and in the dark. UV irradiation was performed with a mercury lamp (0.5 mW/cm2). Cis ratio in the aqueous solution was evaluated from the peak areas in HPLC immediately after filtration.

[3] = Aqueous solubilization in 1/15 M phosphate buffer (pH 7.4) under UV, visible light or dark, with cis ratio in solution by HPLC
Protocol: as §1, §2
Table S4. Aqueous solubilization and cis ratio of 3 under irradiation at various wavelengths through filters of […]
Illumination was performed with a xenon lamp using repeated cycles of irradiation and shaking (5000 flashes, then shaking for 10 sec) through filters of various bandwidths at room temperature (20-22 °C) for 1 h. The cis ratio in the aqueous solution was evaluated by HPLC immediately after filtration, based on peak area.
Table S5. Aqueous solubilization of 3 under UV irradiation at various intensity levels.
Sample irradiation was conducted using 365 nm LED light (max light intensity: 290 mW/cm2) at 37 °C for 1 […]
Sample irradiations were conducted with the white light through a filter cutting off wavelengths below 560 nm, or with 365 nm LED light (344 mW/cm2) at 37 °C for 1 h.
Table S7. Aqueous dissolution of UV-irradiated crystals of 3 measured in the dark, and the cis ratio contained […]
Crystals of 3 were irradiated with 365 nm LED light (344 mW/cm2) at 37 °C for 3 h.
The UV-irradiated crystals and unirradiated crystals were each shaken in phosphate buffer in the dark at 37 °C for 1 h.
Physicochemical properties […]
Compound 3 (about 0.2 mg) was ground and taken up in 1/15 M phosphate buffer (pH 7.4, 1.0 mL) in a 10 mL glass tube. The suspension was incubated under ultrasound irradiation for 10 min, and shaken in a temperature controllable incubator located in a dark room for the indicated time at the indicated temperature.
With shaking on a plate shaker, a sample was irradiated with a 365 nm mercury lamp (4 W, UVP compact […]
white LED light (5 W, Nikki Trading Corp., NLSS05BM, 68 and 54 mW/cm2 at 450 and 540 nm, respectively) through a filter cutting off wavelengths below 560 nm (Atto Corp. YA-3). Irradiation was done from the top of the sample glass tube. Then, the suspension was filtered through a Millipore Millex-LG (0.20 […]
For irradiation at various UV wavelengths, 3 (about 0.1 mg) was ground and taken up in 1/15 M phosphate buffer (pH 7.4, 0.2 mL) in a well of a 96-well white plate. Illumination over a range of wavelength from 355-540 nm was performed using a plate reader EnVision equipped with a xenon flash lamp (35 W, 500 Hz), with excitation filters of appropriate bandwidths.

SMILES	chromatographic logP [1]	solubility at 24 h [2] [µg/mL]	times more soluble than trans-2 ([2]; cis-1 vs trans-2) [times]	aqueous solubilization under UV irradiation vs in the dark ([3]; UV 0.5 mW/cm2, 37 °C, 5 h)	increase of solubilization by UV irradiation ([3]; more intense UV irradiation (344 mW/cm2)) [fold]
COc1ccc(/C=C/c2ccc(OC)c(OC)c2)cc1OC [trans-2]	3.2	0.0475 (≈ 0.158 µM)	–	–	–
COc1ccc(/C=C\c2ccc(OC)c(OC)c2)cc1OC [cis-1]	3.3	0.673 (≈ 2.24 µM)	14	–	–
O=C(O)c1cc(/N=N/c2ccc(S(=O)(=O)Nc3ccccn3)cc2)ccc1O [Compound 4, Sulfasalazine, reference compound]	–	–	–	essentially the same	1.4
